# Assay results as given in patent US9815863B2, “Hydrogen bond forming fluoro ketolides for treating diseases” (priority 2010, dated 2017).
# Test system: Streptococcus pyogenes Tel^S, Mac^S
# Experiment: MIC against streptococci clinical isolates (Table 3)
# Format: cell-based
# Details: Streptococcus pyogenes, 10 strains
smiles,measurement,setting,value
CC[C@H]1OC(=O)[C@@](C)(F)C(=O)[C@H](C)[C@@H](O[C@@H]2O[C@H](C)C[C@H](N(C)C)[C@H]2O)[C@](C)(OC)C[C@@H](C)C(=O)[C@H](C)[C@H]2N(CCCCn3cc(-c4cccc(N)c4)nn3)C(=O)O[C@]12C [CEM-101],MIC50,read-out: MIC50,0.03 µg/mL
same,MIC90,read-out: MIC90,0.03 µg/mL
